Data: patent US8937065B2, “Compositions and methods for modulating a kinase” (Clevexel Pharma, priority 2011, dated 2015)
Like-named read-outs stand apart in the source and are kept apart here. Values belong to the molecule of their own block, whether it stands above or below them.

Columns and labels:
JAK3 pathway = assay: Cell based JAK3 pathway inhibition (STAT6-bla RA1 cells, IL-4 activated); conditions: for Emax: cell based JAK3 pathway inhibition, maximal inhibition, read-out: Max % Inh; for IC50: STAT6-bla RA1 cells, IL-4 at EC80
Procedure: 32 μL of the cell suspension (25,000 cells) was added to each well of a 384-well TC-Treated assay plate. Cells in Assay Media were incubated for 16-24 hours in the plate at 37° C./5% CO2 in a humidified incubator. 4 μL of a 10× serial dilution of a compound of the invention was added to appropriate wells of the plate and pre-incubated at 37° C./5% CO2 in a humidified incubator with cells for 30 minutes. 4 μL of 10× control activator IL-4 at the predetermined EC80 concentration was added to wells containing the compound of the invention. The plate was incubated for 5 hours at 37° C./5% CO2 in a humidified incubator. 8 μL of 1 μM Substrate Loading Solution was added to each well and the plate was incubated for 2 hours at room temperature. The plate was read on a fluorescence plate reader.

JAK3 = molecular target: T1, JAK3 (Homo sapiens, UniProt P52333); assay: JAK3 enzymatic activity assay (Z'-LYTE Biochemical Kinase Assay, 2 hr preincubation at 4° C.); conditions: cell free, 1% DMSO, read-out: JAK3 activity cell free (2 hr preincubation at (4° C.) Kj)
T1 construct: purchased Invitrogen, Madison, Wis
T1 sequence (P52333 1-1124): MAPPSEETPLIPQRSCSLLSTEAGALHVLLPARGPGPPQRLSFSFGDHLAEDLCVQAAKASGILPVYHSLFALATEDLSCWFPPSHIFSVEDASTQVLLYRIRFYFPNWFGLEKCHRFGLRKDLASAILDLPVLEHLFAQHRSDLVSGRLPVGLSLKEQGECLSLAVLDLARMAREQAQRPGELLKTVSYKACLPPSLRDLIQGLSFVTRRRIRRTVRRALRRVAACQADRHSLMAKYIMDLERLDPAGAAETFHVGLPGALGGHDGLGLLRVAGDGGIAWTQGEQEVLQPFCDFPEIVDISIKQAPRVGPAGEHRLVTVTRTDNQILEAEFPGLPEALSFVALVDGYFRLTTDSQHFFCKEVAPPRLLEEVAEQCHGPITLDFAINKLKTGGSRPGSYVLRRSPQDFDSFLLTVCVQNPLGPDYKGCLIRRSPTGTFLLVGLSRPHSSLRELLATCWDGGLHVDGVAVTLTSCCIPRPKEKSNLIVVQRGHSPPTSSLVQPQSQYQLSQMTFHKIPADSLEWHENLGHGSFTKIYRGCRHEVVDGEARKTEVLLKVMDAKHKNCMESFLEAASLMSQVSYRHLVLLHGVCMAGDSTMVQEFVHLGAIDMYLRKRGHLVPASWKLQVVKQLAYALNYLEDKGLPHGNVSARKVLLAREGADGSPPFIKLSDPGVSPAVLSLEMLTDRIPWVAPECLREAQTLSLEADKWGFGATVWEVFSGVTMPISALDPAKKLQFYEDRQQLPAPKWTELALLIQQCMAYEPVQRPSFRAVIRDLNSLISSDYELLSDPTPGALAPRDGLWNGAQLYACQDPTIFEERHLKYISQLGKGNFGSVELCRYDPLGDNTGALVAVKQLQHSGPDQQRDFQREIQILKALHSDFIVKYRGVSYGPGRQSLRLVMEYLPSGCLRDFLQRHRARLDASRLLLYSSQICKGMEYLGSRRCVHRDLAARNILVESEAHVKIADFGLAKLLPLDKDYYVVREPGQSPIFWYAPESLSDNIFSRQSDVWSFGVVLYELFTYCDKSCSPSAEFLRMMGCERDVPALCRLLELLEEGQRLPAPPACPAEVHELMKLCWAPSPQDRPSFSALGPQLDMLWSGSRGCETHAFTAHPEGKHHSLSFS
Procedure: The assays were performed according to manufacturer's protocols, except that prior to the kinase reaction they were pre-incubated for 2 hours at 4° C., in order to be able to assay for time-dependent inhibition.
In addition to the compound, each 10 μL JAK3 kinase reaction contained 0.43-1.89 ng JAK3 and 2 μM peptide substrate in 50 mM HEPES (pH 7.5), 0.01% BRIJ-35, 10 mM MgCl2 and 1 mM EGTA. The kinase reaction was allowed to proceed for 1 hour.

Daudi cells = assay: Daudi CTG assay (Daudi proliferation, 72 hr, Cell Titer Glo); assay type: cell-based; conditions: Homo sapiens
Procedure: The compounds of the invention were tested on Daudi proliferation according to the procedure in Example 4 (for Daudi cells): Proliferation of RS4; 11, Ramos, Namalwa, RL, Molt-4 and Daudi cells. The compounds of the invention were tested on Daudi proliferation (72 hr), 3 fold dilution, and 9 points in duplicates. The top concentration for compounds of the invention was 10 uM; reference compound 7A top concentration was 10 uM; and Paclitaxel was 500 nM. Cell viability was determined using the Cell Titer Glo (CTG) reagent and detected by EnVision. EC50s were calculated by Prism 5.
The CellTiter-Glo™ Luminescent Cell Viability Assay uses ATP, a required co-factor of the luciferase reaction, as an indicator of metabolically active cells. The enzyme luciferase acts on luciferin in the presence of Mg^2+and ATP to produce oxyluciferin and to release energy in the form of luminescence. Since the luciferase reaction requires ATP, the luminescence produced is proportional to the amount of ATP present, an indicator of cellular metabolic activity.

[1] = Daudi CTG assay, Daudi proliferation 72 hr, Cell Titer Glo, top concentration 10 uM (Paclitaxel 500 nM), read-out: IC50

IC50 (JAK3 pathway): 110 to 1000 nM
SMILES: O=C(Nc1cccc(-c2nc(-c3c[nH]c(C(=O)N4CCCC4)c3)cs2)c1)N1CCOCC1 [28A]
Emax (JAK3 pathway): 82.3%

IC50 (JAK3 pathway): > 10000 nM
IC50 (Daudi cells; [1]): > 10000 nM
SMILES: NC(=O)c1cc(-c2csc(-c3cccc(NC(=O)CN4CCOCC4)c3)n2)c[nH]1 [29A]

IC50 (JAK3 pathway): 1100 to 10000 nM
IC50 (Daudi cells; [1]): 1100 to 10000 nM
SMILES: CCN(CC)C(=O)c1cc(-c2csc(-c3cccc(NC(=O)CN4CCOCC4)c3)n2)c[nH]1 [30A]
Emax (JAK3 pathway): 98.2%

IC50 (JAK3 pathway): 1100 to 10000 nM
IC50 (Daudi cells; [1]): 1100 to 10000 nM
SMILES: O=C(CN1CCOCC1)Nc1ccc(-c2nc(-c3c[nH]c(C(=O)N4CCCCC4)c3)cs2)cc1 [31A]
Emax (JAK3 pathway): 76.8%

IC50 (JAK3 pathway): 110 to 1000 nM
IC50 (Daudi cells; [1]): 110 to 1000 nM
SMILES: COc1ccc(-c2nc(-c3c[nH]c(C(=O)N4CCCC4)c3)cs2)cc1NC(=O)CN1CCOCC1 [32A]
Emax (JAK3 pathway): 71.7%

IC50 (JAK3 pathway): 110 to 1000 nM
IC50 (Daudi cells; [1]): 110 to 1000 nM
SMILES: COc1ccc(-c2nc(-c3c[nH]c(C(=O)N4CCCC4)c3)cs2)cc1NC(=O)CN1CCCCC1 [33A]
Emax (JAK3 pathway): 69.8%

IC50 (JAK3 pathway): 110 to 1000 nM
IC50 (Daudi cells; [1]): 110 to 1000 nM
SMILES: CCN(CC)CC(=O)Nc1cc(-c2nc(-c3c[nH]c(C(=O)N4CCCC4)c3)cs2)ccc1OC [34A]
Emax (JAK3 pathway): 79.7%

IC50 (JAK3 pathway): 110 to 1000 nM
IC50 (Daudi cells; [1]): 110 to 1000 nM
SMILES: O=C(CN1CCOCC1)Nc1cc(-c2nc(-c3c[nH]c(C(=O)N4CCCC4)c3)cs2)ccc1F [35A]
Emax (JAK3 pathway): 78.9%

Ki (JAK3): 1100 to 10000 nM
SMILES: O=C(c1cc(-c2csc(Nc3cccc(C(F)(F)F)c3)n2)c[nH]1)N1CCCC1 [39A]

Ki (JAK3): 1100 to 10000 nM
SMILES: O=C(c1cc(-c2csc(NC3CCCC3)n2)c[nH]1)N1CCCC1 [45A]

Ki (JAK3): 1100 to 10000 nM
SMILES: O=C(c1cc(-c2csc(NCc3ccc(F)cc3)n2)c[nH]1)N1CCCC1 [47A]

IC50 (JAK3 pathway): 110 to 1000 nM
SMILES: O=C(c1cc(-c2csc(-c3ccccn3)n2)c[nH]1)N1CCCC1 [53A]
Emax (JAK3 pathway): 72%

IC50 (JAK3 pathway): 110 to 1000 nM
SMILES: O=C(c1cc(-c2csc(-c3ccc(Cl)cc3)n2)c[nH]1)N1CCCC1 [61A]
Emax (JAK3 pathway): 60%

IC50 (JAK3 pathway): 110 to 1000 nM
SMILES: Cc1ccc(-c2nc(-c3c[nH]c(C(=O)N4CCCC4)c3)cs2)c(C)c1 [63A]
Emax (JAK3 pathway): 63%

Ki (JAK3): 1100 to 10000 nM
SMILES: Cc1ccccc1-c1nc(-c2c[nH]c(C(=O)N3CCCC3)c2)cs1 [64A]

IC50 (Daudi cells; Daudi, read-out: Daudi CTG assay IC50, historical data): 4.69 nM
IC50 (Daudi cells; Daudi proliferation 72 hr, control compounds, read-out: Daudi CTG assay control IC50): 4.5 nM
SMILES: CC(=O)O[C@H]1C(=O)[C@@]2(C)[C@H]([C@H](OC(=O)c3ccccc3)[C@]3(O)C[C@H](OC(=O)[C@H](O)[C@@H](NC(=O)c4ccccc4)c4ccccc4)C(C)=C1C3(C)C)[C@]1(OC(C)=O)CO[C@@H]1C[C@@H]2O [Paclitaxel, paclitaxel, reference compound]

More lines, now with the values behind:

SMILES: O=C(c1cc(-c2csc(NCc3ccco3)n2)c[nH]1)N1CCCC1 [5A]
Emax (JAK3 pathway): 68%

SMILES: O=C(c1cc(-c2csc(NCc3ccco3)n2)c[nH]1)N1CCCC1 [6A]
Ki (JAK3): 1100 to 10000 nM
IC50 (JAK3 pathway): 1100 to 10000 nM

SMILES: Cc1csc(Cc2nc(-c3c[nH]c(C(=O)N4CCCC4)c3)cs2)n1 [8A]
Ki (JAK3): 1100 to 10000 nM

SMILES: CCOc1ccc(-c2nc(-c3c[nH]c(C(=O)N4CCCC4)c3)cs2)cc1OC [9A]
Ki (JAK3): 1100 to 10000 nM

SMILES: COc1cccc(-c2nc(-c3c[nH]c(C(=O)N4CCCC4)c3)cs2)c1 [10A]
Ki (JAK3): 1100 to 10000 nM

SMILES: O=C(c1cc(-c2csc(Nc3ccccc3)n2)c[nH]1)N1CCCC1 [12A]
IC50 (JAK3 pathway): 110 to 1000 nM
Emax (JAK3 pathway): 81%

SMILES: O=C(c1cc(-c2csc(Nc3ccc(F)cc3)n2)c[nH]1)N1CCCC1 [13A]
IC50 (JAK3 pathway): 110 to 1000 nM
Emax (JAK3 pathway): 78%

SMILES: CC(=O)c1ccc(Nc2nc(-c3c[nH]c(C(=O)N4CCCC4)c3)cs2)cc1 [14A]
Ki (JAK3): 1100 to 10000 nM

SMILES: CN(c1ccccc1)c1nc(-c2c[nH]c(C(=O)N3CCCC3)c2)cs1 [15A]
Ki (JAK3): > 10000 nM

SMILES: O=C(Nc1cccc(-c2nc(-c3c[nH]c(C(=O)N4CCCC4)c3)cs2)c1)c1ccccc1 [16A]
Ki (JAK3): > 10000 nM

SMILES: CN1CCN(CC(=O)Nc2cccc(-c3nc(-c4c[nH]c(C(=O)N5CCCC5)c4)cs3)c2)CC1 [17A]
Ki (JAK3): > 10000 nM
IC50 (JAK3 pathway): 110 to 1000 nM

SMILES: O=C(c1cc(-c2csc(Nc3c(F)cc(F)cc3F)n2)c[nH]1)N1CCCC1 [18A]
Ki (JAK3): 1100 to 10000 nM

SMILES: O=C(c1cc(-c2csc(Nc3ccc(N4CCOCC4)cc3)n2)c[nH]1)N1CCCC1 [19A]
Ki (JAK3): 1100 to 10000 nM

SMILES: O=C(CN1CCCCC1)Nc1cccc(-c2nc(-c3c[nH]c(C(=O)N4CCCC4)c3)cs2)c1 [20A]
IC50 (JAK3 pathway): 110 to 1000 nM
Emax (JAK3 pathway): 80.2%

SMILES: CC(=O)Nc1cccc(-c2nc(-c3c[nH]c(C(=O)N4CCCC4)c3)cs2)c1 [21A]
IC50 (JAK3 pathway): 110 to 1000 nM
Emax (JAK3 pathway): 84.4%

SMILES: O=C(CN1CCOCC1)Nc1ccc(-c2nc(-c3c[nH]c(C(=O)N4CCCC4)c3)cs2)cc1 [22A]
IC50 (JAK3 pathway): 110 to 1000 nM
Emax (JAK3 pathway): 100%

SMILES: CN(C)C(=O)c1cc(-c2csc(-c3cccc(NC(=O)CN4CCOCC4)c3)n2)c[nH]1 [23A]
IC50 (JAK3 pathway): 1100 to 10000 nM
Emax (JAK3 pathway): 75.1%

SMILES: CN(C)C(=O)c1cc(-c2csc(-c3cccc(NC(=O)CN4CCCCC4)c3)n2)c[nH]1 [24A]
IC50 (JAK3 pathway): 1100 to 10000 nM
Emax (JAK3 pathway): 74.7%

SMILES: CN1CCN(CC(=O)Nc2cccc(-c3nc(-c4c[nH]c(C(=O)N(C)C)c4)cs3)c2)CC1 [25A]
IC50 (JAK3 pathway): > 10000 nM

SMILES: CN(C)CC(=O)Nc1cccc(-c2nc(-c3c[nH]c(C(=O)N4CCCC4)c3)cs2)c1 [26A]
IC50 (JAK3 pathway): 110 to 1000 nM
Emax (JAK3 pathway): 74.6%

SMILES: O=C(CN1CCOCC1)Nc1cccc(-c2nc(-c3c[nH]c(C(=O)NC4CC4)c3)cs2)c1 [27A]
IC50 (JAK3 pathway): 1100 to 10000 nM
Emax (JAK3 pathway): 100%
